Results as given in ChEMBL document CHEMBL1121939, “1-beta-D-arabinofuranosyl-1H-imidazo[4,5-c]pyridine (ara-3-deazaadenine)” (J Med Chem, 1982).
pIC50: −log10 of the molar value.

Assays:
L929 = experiment: Inhibitory activity against herpes simplex virus type 1 grown in L929 cells; format: functional, Mus musculus
Adenosylhomocysteinase = Adenosylhomocysteinase (Homo sapiens, UniProt P23526); experiment: Inhibitory activity against S-adenosyl-homocysteine hydrolase; set-up: species or system herpes simplex virus; settings: read-out: I50
Chain of Adenosylhomocysteinase (P23526 whole entry): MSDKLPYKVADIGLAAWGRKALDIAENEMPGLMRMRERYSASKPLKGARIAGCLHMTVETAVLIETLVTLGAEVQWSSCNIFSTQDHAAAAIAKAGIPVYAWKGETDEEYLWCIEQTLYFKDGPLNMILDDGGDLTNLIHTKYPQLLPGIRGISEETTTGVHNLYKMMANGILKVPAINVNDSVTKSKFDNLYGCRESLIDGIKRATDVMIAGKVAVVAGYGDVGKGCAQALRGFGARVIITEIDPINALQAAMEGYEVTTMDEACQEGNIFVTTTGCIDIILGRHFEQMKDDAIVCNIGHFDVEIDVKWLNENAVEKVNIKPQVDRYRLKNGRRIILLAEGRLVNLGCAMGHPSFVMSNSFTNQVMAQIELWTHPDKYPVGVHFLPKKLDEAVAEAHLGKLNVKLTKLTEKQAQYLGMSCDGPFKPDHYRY

Structure (SMILES)	MED50 (L929)	Virus rating (L929)	pIC50 (Adenosylhomocysteinase)
Nc1ncnc2c1ncn2[C@@H]1O[C@H](CO)[C@@H](O)[C@@H]1O [VIDARABINE]	0.8 µg/mL	3.7	–
Nc1nccc2c1ncn2[C@@H]1O[C@H](CO)[C@@H](O)[C@@H]1O	189 µg/mL	0.8	4.00
Nc1nccc2c1ncn2[C@@H]1O[C@H](CO)[C@@H](O)[C@H]1O	–	–	5.40
